Legend:
[1] = molecular target: T1, Fructose-bisphosphate aldolase A (Oryctolagus cuniculus, UniProt P00883); test: Inhibition of rabbit muscle […] class 1 Fba expressed in Escherichia coli
T1 sequence (P00883 whole entry): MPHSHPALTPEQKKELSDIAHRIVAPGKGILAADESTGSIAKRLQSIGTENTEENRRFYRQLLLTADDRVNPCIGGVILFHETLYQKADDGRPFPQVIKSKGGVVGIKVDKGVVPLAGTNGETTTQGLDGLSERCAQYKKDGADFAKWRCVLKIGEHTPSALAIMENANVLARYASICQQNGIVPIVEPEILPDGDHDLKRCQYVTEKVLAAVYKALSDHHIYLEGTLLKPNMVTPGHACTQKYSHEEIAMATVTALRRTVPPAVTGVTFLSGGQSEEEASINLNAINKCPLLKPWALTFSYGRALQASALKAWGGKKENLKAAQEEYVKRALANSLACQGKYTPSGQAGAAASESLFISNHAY

[2] = molecular target: T2, Fructose-bisphosphate aldolase (Helicobacter pylori (strain ATCC 700392 / 26695), UniProt P56109); test: Inhibition of Helicobacter pylori recombinant zinc dependent class 2 Fba expressed in Escherichia coli JM109
T2 sequence (P56109 whole entry): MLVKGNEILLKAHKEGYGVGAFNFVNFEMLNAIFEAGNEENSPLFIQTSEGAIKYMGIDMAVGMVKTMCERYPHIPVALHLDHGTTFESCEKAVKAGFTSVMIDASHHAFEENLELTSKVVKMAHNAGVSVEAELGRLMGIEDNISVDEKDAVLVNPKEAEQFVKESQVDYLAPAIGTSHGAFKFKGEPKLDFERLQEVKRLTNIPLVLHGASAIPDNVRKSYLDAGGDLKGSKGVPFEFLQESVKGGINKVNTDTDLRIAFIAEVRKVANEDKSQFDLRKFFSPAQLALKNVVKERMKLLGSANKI

[3] = molecular target: T3, Fructose-bisphosphate aldolase (Candida albicans (strain SC5314 / ATCC MYA-2876), UniProt Q9URB4); test: Inhibition of Candida albicans zinc dependent class 2 Fba
T3 sequence (Q9URB4 whole entry): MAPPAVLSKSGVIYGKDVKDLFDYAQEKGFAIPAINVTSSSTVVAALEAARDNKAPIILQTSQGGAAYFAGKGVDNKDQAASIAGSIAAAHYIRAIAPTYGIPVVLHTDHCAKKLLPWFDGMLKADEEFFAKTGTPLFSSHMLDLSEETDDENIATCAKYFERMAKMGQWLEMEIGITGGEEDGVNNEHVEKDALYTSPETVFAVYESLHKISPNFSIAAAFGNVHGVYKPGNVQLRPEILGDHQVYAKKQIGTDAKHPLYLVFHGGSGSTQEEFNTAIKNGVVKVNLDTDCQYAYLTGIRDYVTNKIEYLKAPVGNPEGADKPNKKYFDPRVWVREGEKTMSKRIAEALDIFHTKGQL

SMILES	Ki [1]	Ki [2]	Ki [3]
O=C([C@H](O)COP(=O)(O)O)[C@H](O)C(O)COP(=O)(O)O (stereo partly drawn) [1,6-di-O-phosphono-D-fructose]	15 µM	17 µM	85 µM
CCCCCC(=O)OCCCCN(O)C(=O)COP(=O)(O)O [4-(N-hydroxy-2-(phosphonooxy)acetamido)butyl hexanoate]	850 µM		

From BindingDB's records for doi:10.1021/jm1009814 (Paris-Sud University, 2010)
